# Data from patent publication US20050148653A1, “Polymaleimide compounds and their medical use” (priority 2001, published 2005).
# Like-named read-outs stand apart in the source and are kept apart here.
# Experiments:
# HIV (IHV-1RF) = assay: Anti-viral (virucidal) assay: plate-bound HIV treated 10 minutes, C8166 cells added, syncytium score and XTT; assay type: cell-based; conditions: for Syncytia score day 5 (quadruplicate wells) / Syncytia score day 6 (quadruplicate wells): C8166 cells; for Mean Optical Readings at 450 nm: XTT cell viability
# Procedure: HIV was attached to the surface of 96-well cell culture plates using 100 μl of 50 μg/ml poly-L-lysine hydrobromide (PLL) of molecular weight >300 K for 1 h at RT. The outer wells were left uncoated and filled with 250 μl of PBS to counteract the effects of evaporation. The coated wells were washed twice with PBS and 25 μl of RPMI 1640 medium containing 5×10^3 TCID50 of IHV-1RF was added and incubated for 1 h at RT. The wells were then washed twice with PBS and 25 μl of varying concentrations of the test compounds made up with serum free medium (containing a constant 10% DMSO) were added to the wells in quadruplicate and the plates incubated at 37° C. for 10 minutes. The wells were again washed twice with PBS and 5×10^4 C8166 cells in a volume of 300 μl distributed to each well and the plates incubated for 5 and 6 days respectively. On days 5 and 6 the cells were assessed microscopically for the presence of cytopathic effect (syncytium formation) and recorded. In order to quantify the cytopathic effect, XIT which is metabolised by viable but not dead cells, was added and the absorbance read at 450 nm after […] incubation at 37° C.
# An assessment of viral cytopathic effect was made microscopically on days 5 and 6, but the end point of the experiment was on day 6 when the level of virus infection (as determined by cell viability) was quantified by the use of XTT.
# Chlamydia trachomatis = assay: Chlamydia assay: transient treatment of Chlamydia with maleimides, infection of McCoy cells, iodine-stained inclusions counted; assay type: cell-based; conditions: for activity relative to bis maleimide equivalent: chlamydia infection of McCoy cells; for IODINE-STAINED INCLUSIONS/FIELD F1: field 1; for IODINE-STAINED INCLUSIONS/FIELD F2: field 2; for IODINE-STAINED INCLUSIONS/FIELD F3: field 3; for IODINE-STAINED INCLUSIONS/FIELD F4: field 4; for IODINE-STAINED INCLUSIONS/FIELD F5: field 5; for MEAN COUNT/FIELD (iodine-stained inclusions): mean of 5 fields; for TOTAL COUNT/FIELDS (iodine-stained inclusions): sum of 5 fields; for COMMENTS: inclusions seen on entire coverslip: re-examined under low power; for inhibition of the infection of McCoy cells with chlamydia: transient exposure of chlamydia to compound
# Procedure: Purified Chlamydia trachomatis (250 μl) was added to 250 μl of each compound concentration and the mixtures incubated at room temperature for 5 minutes. The tubes were then centrifuged (15000 rpm, 15 minutes), the supernatant decanted and the pellet washed serum free MEM (with 0.5 mls). This step was repeated and the resultant pellet resuspended MEM (in 0.5 ml) and inoculated into a confluent shell vial (coverslip) cultures of McCoy cells. The cultures were centrifuged (3000 rpm, 1 hour at 37° C.) and incubated for a further 2 hours prior to being changed onto MEM with 10% foetal calf serum, I μg/rl cycloheximide, 0.5% added glucose, vancomycin, streptomycin and amphoteracin B (Fungizone). The cultures were incubated for 68 hours, fixed in methanol and stained with Lugol's iodine. 3 replicates of each positive control (with and without DMSO) were included, as well as 2 uninoculated cell controls. Each coverslip culture was examined using low power (10×) objective to ensure that inclusions were evenly distributed and 5 high power (×40) fields were selected at random from different areas of the coverslip. Iodine stained inclusions were counted. Where no inclusions were seen on high power, the culture was re-examined under low power. Table 1. Effect of Transient Treatment with maleimides on Chlamydia Infection of McCoy Cell In Vitro. Chlamydia was pre-treated with each of the indicated maleimides for 5 minutes and the compound removed by centrifugation. McCoy cells were then exposed to the compound pre-treated chlamydia for 68 hours and inclusions counted following staining of cells with Lugols iodine.
# [1] = final conc 0.02 (M), working conc 0.04 (M)
# [2] = final conc 0.4 (M), working conc 0.8 (M)
# [3] = final conc 1 (M), working conc 2 (M), 5 minutes pre-treatment, McCoy cells 68 hours
# [4] = final conc 1 (M), working conc 2 (M)
structure (smiles),measurement,setting,value
"CCN1C(=O)C=CC1=O [Compound 4, Ethyl maleimide]",Syncytia score day 5 (quadruplicate wells),HIV (IHV-1RF); Conc 0.01 mM,++++ (50-100% syncytia)
same,Syncytia score day 6 (quadruplicate wells),"HIV (IHV-1RF); Conc 0.01 mM, day 6",++++ (50-100% syncytia)
same,Mean Optical Readings at 450 nm,"HIV (IHV-1RF); Conc 0.01 mM, day 6",0.48
same,Syncytia score day 5 (quadruplicate wells),HIV (IHV-1RF); Conc 0.03 mM,++++ (50-100% syncytia)
same,Syncytia score day 6 (quadruplicate wells),"HIV (IHV-1RF); Conc 0.03 mM, day 6",++++ (50-100% syncytia)
same,Mean Optical Readings at 450 nm,"HIV (IHV-1RF); Conc 0.03 mM, day 6",0.4915
same,Syncytia score day 5 (quadruplicate wells),HIV (IHV-1RF); Conc 0.1 mM,++++ (50-100% syncytia)
same,Syncytia score day 6 (quadruplicate wells),"HIV (IHV-1RF); Conc 0.1 mM, day 6",++++ (50-100% syncytia)
same,Mean Optical Readings at 450 nm,"HIV (IHV-1RF); Conc 0.1 mM, day 6",0.5048
same,Syncytia score day 5 (quadruplicate wells),HIV (IHV-1RF); Conc 0.3 mM,++++ (50-100% syncytia)
same,Syncytia score day 6 (quadruplicate wells),"HIV (IHV-1RF); Conc 0.3 mM, day 6",++++ (50-100% syncytia)
same,Mean Optical Readings at 450 nm,"HIV (IHV-1RF); Conc 0.3 mM, day 6",0.502
same,Syncytia score day 5 (quadruplicate wells),HIV (IHV-1RF); Conc 1 mM,+++ (25-50% syncytia)
same,Mean Optical Readings at 450 nm,"HIV (IHV-1RF); Conc 1 mM, day 6",0.5275
same,Syncytia score day 5 (quadruplicate wells),HIV (IHV-1RF); Conc 3 mM,0
same,Syncytia score day 6 (quadruplicate wells),"HIV (IHV-1RF); Conc 3 mM, day 6",0
same,Mean Optical Readings at 450 nm,"HIV (IHV-1RF); Conc 3 mM, day 6, No Virus 1.84955, Virus Control 0.5091",1.6305
same,IC50,"HIV (IHV-1RF); Human immunodeficiency virus 1, C8166, read-out: IC50 (virucidal)",1900 µM
same,activity relative to bis maleimide equivalent,Chlamydia trachomatis,less active than its bis maleimide equivalent
same,IODINE-STAINED INCLUSIONS/FIELD F1,Chlamydia trachomatis; [1],1 inclusions/field
same,IODINE-STAINED INCLUSIONS/FIELD F2,Chlamydia trachomatis; [1],11 inclusions/field
same,IODINE-STAINED INCLUSIONS/FIELD F3,Chlamydia trachomatis; [1],6 inclusions/field
same,IODINE-STAINED INCLUSIONS/FIELD F4,Chlamydia trachomatis; [1],4 inclusions/field
same,IODINE-STAINED INCLUSIONS/FIELD F5,Chlamydia trachomatis; [1],2 inclusions/field
same,MEAN COUNT/FIELD (iodine-stained inclusions),Chlamydia trachomatis; [1],5 inclusions/field
same,TOTAL COUNT/FIELDS (iodine-stained inclusions),Chlamydia trachomatis; [1],24
same,IODINE-STAINED INCLUSIONS/FIELD F1,Chlamydia trachomatis; [2],0 inclusions/field
same,IODINE-STAINED INCLUSIONS/FIELD F2,Chlamydia trachomatis; [2],0 inclusions/field
same,IODINE-STAINED INCLUSIONS/FIELD F3,Chlamydia trachomatis; [2],0 inclusions/field
same,IODINE-STAINED INCLUSIONS/FIELD F4,Chlamydia trachomatis; [2],0 inclusions/field
same,IODINE-STAINED INCLUSIONS/FIELD F5,Chlamydia trachomatis; [2],0 inclusions/field
same,MEAN COUNT/FIELD (iodine-stained inclusions),Chlamydia trachomatis; [2],0 inclusions/field
same,COMMENTS: inclusions seen on entire coverslip,Chlamydia trachomatis; [2],No
same,TOTAL COUNT/FIELDS (iodine-stained inclusions),Chlamydia trachomatis; [2],0
same,IODINE-STAINED INCLUSIONS/FIELD F1,Chlamydia trachomatis; [3],0 inclusions/field
same,IODINE-STAINED INCLUSIONS/FIELD F2,Chlamydia trachomatis; [4],0 inclusions/field
same,IODINE-STAINED INCLUSIONS/FIELD F3,Chlamydia trachomatis; [4],0 inclusions/field
same,IODINE-STAINED INCLUSIONS/FIELD F4,Chlamydia trachomatis; [4],0 inclusions/field
same,IODINE-STAINED INCLUSIONS/FIELD F5,Chlamydia trachomatis; [4],0 inclusions/field
same,MEAN COUNT/FIELD (iodine-stained inclusions),Chlamydia trachomatis; [4],0 inclusions/field
same,COMMENTS: inclusions seen on entire coverslip,Chlamydia trachomatis; [4],No
same,TOTAL COUNT/FIELDS (iodine-stained inclusions),Chlamydia trachomatis; [4],0
same,inhibition of the infection of McCoy cells with chlamydia,Chlamydia trachomatis,dose-dependent inhibition
"COCCOCCOCCOCCOc1ccc(N2C(=O)C=CC2=O)cc1 [Compound 3, PEG(5) phenyl maleimide]",Syncytia score day 5 (quadruplicate wells),HIV (IHV-1RF); Conc 0.003 mM,++++ (50-100% syncytia)
same,Syncytia score day 6 (quadruplicate wells),"HIV (IHV-1RF); Conc 0.003 mM, day 6",++++ (50-100% syncytia)
same,Mean Optical Readings at 450 nm,"HIV (IHV-1RF); Conc 0.003 mM, day 6",0.5018
same,Syncytia score day 5 (quadruplicate wells),HIV (IHV-1RF); Conc 0.01 mM,+++ (25-50% syncytia)
same,Syncytia score day 6 (quadruplicate wells),"HIV (IHV-1RF); Conc 0.01 mM, day 6",++++ (50-100% syncytia)
same,Mean Optical Readings at 450 nm,"HIV (IHV-1RF); Conc 0.01 mM, day 6",0.5085
same,Syncytia score day 5 (quadruplicate wells),HIV (IHV-1RF); Conc 0.03 mM,+++ (25-50% syncytia)
same,Syncytia score day 6 (quadruplicate wells),"HIV (IHV-1RF); Conc 0.03 mM, day 6",++++ (50-100% syncytia)
same,Mean Optical Readings at 450 nm,"HIV (IHV-1RF); Conc 0.03 mM, day 6",0.5012
same,Syncytia score day 5 (quadruplicate wells),HIV (IHV-1RF); Conc 0.1 mM,+++ (25-50% syncytia)
same,Syncytia score day 6 (quadruplicate wells),"HIV (IHV-1RF); Conc 0.1 mM, day 6",++++ (50-100% syncytia)
same,Mean Optical Readings at 450 nm,"HIV (IHV-1RF); Conc 0.1 mM, day 6",0.5118
same,Syncytia score day 5 (quadruplicate wells),HIV (IHV-1RF); Conc 0.3 mM,+++ (25-50% syncytia)
same,Syncytia score day 6 (quadruplicate wells),"HIV (IHV-1RF); Conc 0.3 mM, day 6",++++ (50-100% syncytia)
same,Mean Optical Readings at 450 nm,"HIV (IHV-1RF); Conc 0.3 mM, day 6",0.5092
same,Syncytia score day 5 (quadruplicate wells),HIV (IHV-1RF); Conc 1 mM,+++ (25-50% syncytia)
same,Syncytia score day 6 (quadruplicate wells),"HIV (IHV-1RF); Conc 1 mM, day 6",+++ (25-50% syncytia)
same,Mean Optical Readings at 450 nm,"HIV (IHV-1RF); Conc 1 mM, day 6",0.5268
same,IC50,"HIV (IHV-1RF); Human immunodeficiency virus 1, C8166, XTT, day 6, virus treated 10 minutes, read-out: IC50 (virucidal)",> 1000 µM
same,virucidal activity,HIV (IHV-1RF); at concentrations up to 1.0 mM,no virucidal activity
same,activity relative to bis maleimide equivalent,Chlamydia trachomatis,less active than its PEG bis (phenyl maleimide) equivalent
same,IODINE-STAINED INCLUSIONS/FIELD F1,Chlamydia trachomatis; [1],12 inclusions/field
same,IODINE-STAINED INCLUSIONS/FIELD F2,Chlamydia trachomatis; [1],24 inclusions/field
same,IODINE-STAINED INCLUSIONS/FIELD F3,Chlamydia trachomatis; [1],9 inclusions/field
same,IODINE-STAINED INCLUSIONS/FIELD F4,Chlamydia trachomatis; [1],29 inclusions/field
same,IODINE-STAINED INCLUSIONS/FIELD F5,Chlamydia trachomatis; [1],22 inclusions/field
same,MEAN COUNT/FIELD (iodine-stained inclusions),Chlamydia trachomatis; [1],19 inclusions/field
same,TOTAL COUNT/FIELDS (iodine-stained inclusions),Chlamydia trachomatis; [1],96
same,IODINE-STAINED INCLUSIONS/FIELD F1,Chlamydia trachomatis; [2],4 inclusions/field
same,IODINE-STAINED INCLUSIONS/FIELD F2,Chlamydia trachomatis; [2],7 inclusions/field
same,IODINE-STAINED INCLUSIONS/FIELD F3,Chlamydia trachomatis; [2],5 inclusions/field
same,IODINE-STAINED INCLUSIONS/FIELD F4,Chlamydia trachomatis; [2],8 inclusions/field
same,IODINE-STAINED INCLUSIONS/FIELD F5,Chlamydia trachomatis; [2],4 inclusions/field
same,MEAN COUNT/FIELD (iodine-stained inclusions),Chlamydia trachomatis; [2],6 inclusions/field
same,TOTAL COUNT/FIELDS (iodine-stained inclusions),Chlamydia trachomatis; [2],28
same,IODINE-STAINED INCLUSIONS/FIELD F1,Chlamydia trachomatis; [3],0 inclusions/field
same,IODINE-STAINED INCLUSIONS/FIELD F2,Chlamydia trachomatis; [4],0 inclusions/field
same,IODINE-STAINED INCLUSIONS/FIELD F3,Chlamydia trachomatis; [4],0 inclusions/field
same,IODINE-STAINED INCLUSIONS/FIELD F4,Chlamydia trachomatis; [4],0 inclusions/field
same,IODINE-STAINED INCLUSIONS/FIELD F5,Chlamydia trachomatis; [4],0 inclusions/field
same,MEAN COUNT/FIELD (iodine-stained inclusions),Chlamydia trachomatis; [4],0 inclusions/field
same,COMMENTS: inclusions seen on entire coverslip,Chlamydia trachomatis; [4],15
same,TOTAL COUNT/FIELDS (iodine-stained inclusions),Chlamydia trachomatis; [4],0
same,inhibition of the infection of McCoy cells with chlamydia,Chlamydia trachomatis,dose-dependent inhibition
